The target of the experiment is T1, ATM (Homo sapiens, UniProt Q13315).
T1 construct: detecting phosphorylation of Chk2 in a human non-small cell lung cancer cell line NCI-H460 (ATCC company); host or cells: NCI-H460 human non-small cell lung cancer cells
T1 sequence (Q13315 whole entry): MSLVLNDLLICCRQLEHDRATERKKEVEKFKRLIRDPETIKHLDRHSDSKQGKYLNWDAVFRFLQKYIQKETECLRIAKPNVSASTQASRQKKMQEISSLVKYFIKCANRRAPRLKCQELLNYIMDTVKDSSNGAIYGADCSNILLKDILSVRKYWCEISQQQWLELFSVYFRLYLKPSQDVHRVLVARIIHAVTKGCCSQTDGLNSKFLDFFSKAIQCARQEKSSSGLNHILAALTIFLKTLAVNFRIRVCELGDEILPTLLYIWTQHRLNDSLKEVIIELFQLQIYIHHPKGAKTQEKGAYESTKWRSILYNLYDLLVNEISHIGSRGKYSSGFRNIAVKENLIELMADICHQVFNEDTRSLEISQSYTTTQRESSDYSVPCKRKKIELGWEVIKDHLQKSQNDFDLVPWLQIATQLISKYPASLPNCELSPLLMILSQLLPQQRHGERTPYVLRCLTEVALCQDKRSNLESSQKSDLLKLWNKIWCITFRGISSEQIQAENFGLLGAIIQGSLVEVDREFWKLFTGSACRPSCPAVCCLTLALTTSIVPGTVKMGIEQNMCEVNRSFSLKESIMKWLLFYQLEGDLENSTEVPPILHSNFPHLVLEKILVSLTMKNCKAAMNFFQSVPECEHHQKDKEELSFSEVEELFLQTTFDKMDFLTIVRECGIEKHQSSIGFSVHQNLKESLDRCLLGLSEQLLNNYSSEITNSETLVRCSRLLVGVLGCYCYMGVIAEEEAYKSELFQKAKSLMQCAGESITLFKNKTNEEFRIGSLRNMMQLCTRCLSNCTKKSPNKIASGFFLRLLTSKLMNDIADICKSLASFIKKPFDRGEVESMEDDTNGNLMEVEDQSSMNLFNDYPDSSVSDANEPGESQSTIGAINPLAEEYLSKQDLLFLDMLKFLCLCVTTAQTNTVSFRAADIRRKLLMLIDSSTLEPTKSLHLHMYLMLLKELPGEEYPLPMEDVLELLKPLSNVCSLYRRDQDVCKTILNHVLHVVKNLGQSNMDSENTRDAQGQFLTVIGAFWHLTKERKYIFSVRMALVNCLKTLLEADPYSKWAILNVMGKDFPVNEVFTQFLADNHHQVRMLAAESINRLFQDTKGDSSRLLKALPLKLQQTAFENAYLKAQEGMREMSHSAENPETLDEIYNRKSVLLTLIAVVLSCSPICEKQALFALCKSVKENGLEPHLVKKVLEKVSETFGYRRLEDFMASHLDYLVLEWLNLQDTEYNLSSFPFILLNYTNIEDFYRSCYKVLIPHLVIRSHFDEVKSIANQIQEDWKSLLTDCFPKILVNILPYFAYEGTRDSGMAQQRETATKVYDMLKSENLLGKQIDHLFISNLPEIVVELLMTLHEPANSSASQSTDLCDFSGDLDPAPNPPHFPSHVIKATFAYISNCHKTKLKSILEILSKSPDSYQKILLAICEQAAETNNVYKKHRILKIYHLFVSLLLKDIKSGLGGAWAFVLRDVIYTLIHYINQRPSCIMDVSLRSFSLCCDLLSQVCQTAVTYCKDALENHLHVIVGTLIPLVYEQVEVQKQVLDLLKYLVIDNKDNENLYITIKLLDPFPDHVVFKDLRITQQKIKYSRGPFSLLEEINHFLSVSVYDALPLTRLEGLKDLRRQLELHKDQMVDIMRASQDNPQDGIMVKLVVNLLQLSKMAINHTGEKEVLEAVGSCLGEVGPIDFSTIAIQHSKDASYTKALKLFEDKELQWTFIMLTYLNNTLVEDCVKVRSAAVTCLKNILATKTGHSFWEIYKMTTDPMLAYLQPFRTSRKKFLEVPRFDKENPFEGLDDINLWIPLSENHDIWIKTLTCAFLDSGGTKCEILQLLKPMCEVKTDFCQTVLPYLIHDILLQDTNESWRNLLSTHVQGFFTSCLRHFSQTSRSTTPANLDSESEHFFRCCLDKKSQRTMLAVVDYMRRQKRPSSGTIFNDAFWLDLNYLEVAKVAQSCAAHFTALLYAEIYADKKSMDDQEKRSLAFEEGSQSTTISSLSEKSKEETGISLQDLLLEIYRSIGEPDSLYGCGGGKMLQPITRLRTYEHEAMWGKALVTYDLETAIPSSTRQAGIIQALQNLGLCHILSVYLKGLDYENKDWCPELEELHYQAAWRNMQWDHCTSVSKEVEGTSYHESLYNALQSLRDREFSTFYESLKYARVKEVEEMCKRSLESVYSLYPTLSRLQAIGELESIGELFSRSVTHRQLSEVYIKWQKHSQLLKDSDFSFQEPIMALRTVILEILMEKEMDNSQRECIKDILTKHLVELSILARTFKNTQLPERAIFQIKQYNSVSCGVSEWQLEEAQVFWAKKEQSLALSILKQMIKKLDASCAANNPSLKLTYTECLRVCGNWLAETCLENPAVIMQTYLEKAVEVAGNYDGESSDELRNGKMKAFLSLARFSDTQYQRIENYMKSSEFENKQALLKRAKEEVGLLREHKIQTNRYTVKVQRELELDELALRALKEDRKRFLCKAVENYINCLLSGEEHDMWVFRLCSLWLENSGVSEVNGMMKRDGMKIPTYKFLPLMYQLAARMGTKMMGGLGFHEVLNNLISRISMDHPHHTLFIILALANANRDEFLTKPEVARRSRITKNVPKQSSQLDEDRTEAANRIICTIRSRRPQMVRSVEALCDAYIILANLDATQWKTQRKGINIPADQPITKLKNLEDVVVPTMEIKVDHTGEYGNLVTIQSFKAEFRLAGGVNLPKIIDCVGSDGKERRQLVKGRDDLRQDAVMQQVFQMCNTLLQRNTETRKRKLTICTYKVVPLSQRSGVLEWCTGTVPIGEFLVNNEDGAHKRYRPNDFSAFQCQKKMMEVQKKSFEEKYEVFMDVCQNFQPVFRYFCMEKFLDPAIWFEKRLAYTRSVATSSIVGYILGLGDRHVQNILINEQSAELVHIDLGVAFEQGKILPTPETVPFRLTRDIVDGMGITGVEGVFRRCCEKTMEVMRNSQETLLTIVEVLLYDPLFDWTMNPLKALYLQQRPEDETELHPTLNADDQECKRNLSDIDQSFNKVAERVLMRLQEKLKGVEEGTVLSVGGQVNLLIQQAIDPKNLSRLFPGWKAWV
As to the kind of experiment: ATM inhibition test (phosphorylation of Chk2 generated by ionizing radiation, AlphaScreen SureFire). In kind it is cell-based. The settings on record: phosphorylated Chk2 in NCI-H460 cells, ionizing radiation 8Gy, 1 hour after test compound treatment; read-out: ATM inhibitory activity. The method in brief: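 Human NCI-H460 lung cancer cells were treated with compound for 1 h, then irradiated at 8Gy and incubated 1 h at 37° C. Phospho-Chk2 was quantified by AlphaScreen SureFire; inhibition % was normalised between irradiated untreated and non-irradiated untreated wells.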
`CCCCN1CCC(Nc2ccc3c(c2)Cc2cccc(-c4cc(N5CCOCC5)cc(=O)[nH]4)c2O3)CC1C` (centres unmarked) [Example 2-19-2, 6-(7-((1-Butyl-2-methylpiperidin-4-yl)amino)-9H-xanthen-4-yl)-4-morpholinopyridin-2(1H)-one]: the IC50 was in the range of 500 to 2000 nM.

Consider `Cc1ccc(C(C)Nc2ccc3c(c2)Sc2cccc(-c4cc(N5CCOCC5)cc(=O)[nH]4)c2S3)nc1` (single isomer, unassigned) [Example 1-12-143-2, 6-(7-((1-(5-methylpyridin-2-yl)ethyl)amino)thianthren-1-yl)-4-morpholinopyridin-2(1H)-one], for which the IC50 fell in the range of 100 to 500 nM.

As to `O=c1cc(N2CCOCC2)cc(-c2cccc3c2Oc2ccc(NC4CCN(CCc5ccccc5)C4)cc2C3)[nH]1` (centres unmarked) [Example 2-19-7, 4-Morpholino-6-(7-((1-phenethylpyrrolidin-3-yl)amino)-9H-xanthen-4-yl)pyridin-2(1H)-one], the IC50 is 100 to 500 nM.

As to `CN(C)C1CCC(Nc2ccc3c(c2)Sc2cccc(-c4cc(N5CCOCC5)cc(=O)[nH]4)c2S3)CC1` (centres unmarked) [Example 1-36-2, 6-(7-((4-(Dimethylamino)cyclohexyl)amino)thianthren-1-yl)-4-morpholinopyridin-2(1H)-one], the IC50 lay in the range of 100 to 500 nM.

Regarding `COc1cncc(C(C)Nc2ccc3c(c2)Sc2cccc(-c4cc(N5CCOCC5)cc(=O)[nH]4)c2S3)n1` (centres unmarked) [Example 1-12-78, 6-(7-((1-(6-Methoxypyrazin-2-yl)ethyl)amino)thianthren-1-yl)-4-morpholino pyridin-2 (1H)-one], the IC50 lay in the range of 100 to 500 nM.

As to `Cc1nccc(C(C)Nc2ccc3c(c2)Sc2cccc(-c4cc(N5CCOCC5)cc(=O)[nH]4)c2S3)n1` (single isomer, unassigned) [Example 1-12-141-2, 6-(7-((1-(2-methylpyrimidin-4-yl)ethyl)amino)thianthren-1-yl)-4-morpholinopyridin-2(1H)-one], the IC50 is 100 to 500 nM.

For the compound `CN1CCN(c2cc(CNc3ccc4c(c3)Cc3cccc(-c5cc(N6CCOCC6)cc(=O)[nH]5)c3O4)ccn2)CC1` [Example 2-22-2, 6-(7-(((2-(4-methylpiperazin-1-yl)pyridin-4-yl)methyl)amino)-9H-xanthen-4-yl)-4-morpholinopyridin-2(1H)-one], the IC50 was in the range of 100 to 500 nM.

With `CCCC(Nc1ccc2c(c1)Sc1cccc(-c3cc(N4CCOCC4)cc(=O)[nH]3)c1S2)[C@H](C)N` (stereo partly drawn) [Example 1-20-2, 6-(7-(((2S)-2-Aminohexan-3-yl)amino)thianthren-1-yl)-4-morpholino pyridin-2(1H)-one], the IC50 fell in the range of 100 to 500 nM.

With `CNc1ccc2c(c1)Cc1cccc(-c3cc(N4CCOCC4)cc(=O)[nH]3)c1S2` [Example 3-10, 6-(7-(methylamino)-9H-thioxanthen-4-yl)-4-morpholinopyridin-2(1H)-one], the IC50 lay in the range of 500 to 2000 nM.

As for `Cc1cccc(C(CN)Nc2ccc3c(c2)Cc2cccc(-c4cc(N5CCOCC5)cc(=O)[nH]4)c2O3)n1` (centres unmarked) [Example 2-18, 6-(7-((2-Amino-1-(6-methylpyridin-2-yl)ethyl)amino)-9H-xanthen-4-yl)-4-morpholinopyridin-2(1H)-one], the IC50 was 100 to 500 nM.

As for `COc1cc(OC)nc(CN2CCC(Nc3ccc4c(c3)Cc3cccc(-c5cc(N6CCOCC6)cc(=O)[nH]5)c3O4)CC2)n1` [Example 2-28-20, 6-(7-((1-((4,6-Dimethoxypyrimidin-2-yl)methyl)piperidin-4-yl)amino)-9H-xanthen-4-yl)-4-morpholino pyridin-2(1H)-one], the IC50 was 100 to 500 nM.

As for “6-(7-((4,4-Difluoropiperidin- 1-yl)methyl)-9H-xanthen-4- yl)-4-morpholino pyridin-2 (1H)-one [Example 2-2-39]”, the IC50 is less than 100 nM.

Regarding `O=c1cc(N2CCOCC2)cc(-c2cccc3c2Sc2ccc(NC4CCN(Cc5cccnc5)C4)cc2S3)[nH]1` (centres unmarked) [Example 1-24-11, 4-Morpholino-6-(7-((1-(pyridin-3-ylmethyl)pyrrolidin-3-yl)amino)thianthren-1-yl)pyridin-2 (1H)-one], the IC50 was less than 100 nM.

As to `Cc1cccc(C(CO)Nc2ccc3c(c2)Cc2cccc(-c4cc(N5CCOCC5)cc(=O)[nH]4)c2O3)n1` (single isomer, unassigned) [Example 2-14-92-1, 6-(7-((2-hydroxy-1-(6-methylpyridin-2-yl)ethyl)amino)-9H-xanthen-4-yl)-4-morpholinopyridin-2(1H)-one], the IC50 lay within 500 to 2000 nM.

As to `O=c1cc(N2CCOCC2)cc(-c2cccc3c2Sc2ccc(NCCc4cccnc4)cc2S3)[nH]1` [Example 1-5, 4-morpholino-6-(7-((2-(pyridin-3-yl)ethyl)amino)thianthren-1-yl)pyridin-2(1H)-one], the IC50 lay in the range of 100 to 500 nM.

`Cc1ccc(CN2CCC(Nc3ccc4c(c3)Cc3cccc(-c5cc(N6CCOCC6)cc(=O)[nH]5)c3O4)CC2)nc1` [Example 2-28-22, 6-(7-((1-((5-Methylpyridin-2-yl)methyl)piperidin-4-yl)amino)-9H-xanthen-4-yl)-4-morpholino pyridin-2(1H)-one]: the IC50 is 100 to 500 nM.

For `COc1ccncc1CNc1ccc2c(c1)Sc1cccc(-c3cc(N4CCOCC4)cc(=O)[nH]3)c1O2` [Example 4-8-10, 6-(8-(((4-Methoxypyridin-3-yl)methyl)amino)phenoxathiin-4-yl)-4-morpholino pyridin-2(1H)-one], the IC50 is 100 to 500 nM.

Consider `Cc1cccc(C(CCO)Nc2ccc3c(c2)Sc2cccc(-c4cc(N5CCOCC5)cc(=O)[nH]4)c2S3)n1` (centres unmarked) [Example 1-34-5, 6-(7-((3-Hydroxy-1-(6-methylpyridin-2-yl)propyl)amino)thianthren-1-yl)-4-morpholino pyridin-2(1H)-one], for which the IC50 lay within 100 to 500 nM.

As to `O=c1cc(N2CCOCC2)cc(-c2cccc3c2Oc2ccc(NC4CCN(CC(O)c5ccccc5)CC4)cc2C3)[nH]1` (centres unmarked) [Example 2-30-13, 6-(7-((1-(2-Hydroxy-2-phenylethyl)piperidin-4-yl)amino)-9H-xanthen-4-yl)-4-morpholino pyridin-2(1H)-one], the IC50 was in the range of 100 to 500 nM.

On to `COC[C@H](CN(C)C1CCCCC1)Nc1ccc2c(c1)Sc1cccc(-c3cc(N4CCOCC4)cc(=O)[nH]3)c1S2` [Example 1-46-12, (S)-6-(7-((1-(Cyclohexyl (methyl)amino)-3-methoxypropan-2-yl)amino)thianthren-1-yl)-4-morpholino pyridin-2 (1H)-one], for which the IC50 was 100 to 500 nM.

Regarding `Cc1cnc(C(CCN(C)C)Nc2ccc3c(c2)Sc2cccc(-c4cc(=O)cc(N5CCOCC5)o4)c2O3)cn1` (single isomer, unassigned) [Example 10-9, 2-(8-((3-(Dimethylamino)-1-(5-methylpyrazin-2-yl)propyl)amino)phenoxathiin-4-yl)-6-morpholino-4H-pyran-4-one], the IC50 was less than 100 nM.

Take `Cc1ccc(C2(Nc3ccc4c(c3)Sc3cccc(-c5cc(N6CCOCC6)cc(=O)[nH]5)c3S4)CCC2)nc1` [Example 1-50-3, 6-(7-((1-(5-Methylpyridin-2-yl)cyclobutyl)amino)thianthren-1-yl)-4-morpholino pyridin-2(1H)-one]: the IC50 was 100 to 500 nM.

On to `CN(C)C(=O)Nc1ncc(CNc2ccc3c(c2)Sc2cccc(-c4cc(N5CCOCC5)cc(=O)[nH]4)c2S3)cn1` [Example 1-12-47], for which the IC50 fell in the range of 100 to 500 nM.

On to `CC(Nc1ccc2c(c1)Sc1cccc(-c3cc(N4CCOCC4)cc(=O)[nH]3)c1S2)c1nccs1` (centres unmarked) [Example 1-12-67, 4-Morpholino-6-(7-((1-(thiazol-2-yl)ethyl)amino)thianthren-1-yl)pyridin-2 (1H)-one], for which the IC50 was 100 to 500 nM.

`O=c1cc(N2CCOCC2)cc(-c2cccc3c2Sc2ccc(NC4CCN(C5CCOC5)C4)cc2S3)[nH]1` (centres unmarked) [Example 1-24-14, 4-Morpholino-6-(7-((1-(tetrahydrofuran-3-yl)pyrrolidin-3-yl)amino)thianthren-1-yl)pyridin-2 (1H)-one]: the IC50 was in the range of 100 to 500 nM.

Regarding `CN1CCC(Nc2ccc3c(c2)Cc2cccc(-c4cc(N5CCOCC5)cc(=O)[nH]4)c2O3)CC1` [Example 2-3-7, 6-(7-((1-Methylpiperidin-4-yl)amino)-9H-xanthen-4-yl)-4-morpholino pyridin-2(1H)-one], the IC50 fell in the range of 500 to 2000 nM.

Take `Nc1ccc2c(c1)Cc1cc(F)cc(-c3cc(N4CCOCC4)cc(=O)[nH]3)c1O2` [Example 2-48-1, 6-(7-amino-2-fluoro-9H-xanthen-4-yl)-4-morpholinopyridin-2(1H)-one]: the IC50 was 500 to 2000 nM.

On to `O=c1cc(N2CCOCC2)cc(-c2ccc(F)c3c2Oc2ccc(NCc4cncc(Cl)c4)cc2C3)[nH]1` [Example 2-44-3, 6-(7-(((5-Chloropyridin-3-yl)methyl)amino)-1-fluoro-9H-xanthen-4-yl)-4-morpholinopyridin-2(1H)-one], for which the IC50 was 100 to 500 nM.

Turning to `O=c1cc(N2CCOCC2)cc(-c2cccc3c2Sc2ccc(NCCN4CCOCC4)cc2C3)[nH]1` [Example 3-4-1, 4-Morpholino-6-(7-((2-morpholinoethyl)amino)-9H-thioxanthen-4-yl)pyridin-2(1H)-one], the IC50 fell in the range of 500 to 2000 nM.

As for `CC(CN1CCO[C@@H](C)C1)Nc1ccc2c(c1)Sc1cccc(-c3cc(N4CCOCC4)cc(=O)[nH]3)c1S2` (stereo partly drawn) [Example 1-43-8, 6-(7-((4-((S)-2-Methylmorpholino)propan-2-yl)amino)thianthren-1-yl)-4-morpholino pyridin-2(1H)-one], the IC50 lay in the range of 500 to 2000 nM.

In the case of `O=c1cc(N2CCOCC2)cc(-c2cccc3c2Oc2ccc(NCc4ccc(N5CCOCC5)nc4)cc2C3)[nH]1` [Example 2-2-6, 4-Morpholino-6-(7-(((6-morpholinopyridin-3-yl)methyl)amino)-9H-xanthen-4-yl)pyridin-2(1H)-one], the IC50 was 100 to 500 nM.

Regarding `Cc1cnc(C(CCN(C)CCF)Nc2ccc3c(c2)Sc2cccc(-c4cc(N5CCOCC5)cc(=O)[nH]4)c2S3)cn1` (single isomer, unassigned) [Example 10-3-6, 6-(7-((3-((2-Fluoroethyl) (methyl)amino)-1-(5-methylpyrazin-2-yl)propyl)amino)thianthren-1-yl)-4-morpholino pyridin-2(1H)-onc], the IC50 was less than 100 nM.
